Measurements from patent US8653046B2, “Controlling transgene expression across the skin” (ETH Zurich, priority 2009, dated 2014).

Key:
[1] = target: T1, tetracycline-responsive control system (PSV40-tTA-pA; PhCMV*-1-SAMY-pA) (Escherichia coli, UniProt P04483); assay: Compatibility test: tetracycline-responsive (TETOFF) SAMY production in CHO-PEACE8 (pSAM200, pBP99); format: cell-based; conditions: CHO-PEACE8 transiently transfected with tetracycline-responsive control system; Phl 50 μM, Tet 2 μg/mL; 48 h; 100 = no inducer
T1 construct: expressed in transfected cells; host or cells: CHO-PEACE8 transiently transfected with pSAM200 and pBP99
Description: To evaluate the functional compatibility of PEACE with the established tetracycline— [TETOFF; Gossen M., Bujard H., 1992, Proc Natl Acad Sci USA 89(12):5547-5551] and macrolide— [EOFF; Weber W., et al., 2002, Nat Biotechnol 20(9):901-907] responsive expression circuits CHO-PEACE8 is transiently transfected, transgenic for phloretin-responsive SEAP expression, with either the TETOFF-(pSAM200, PSV40-tTA-pA; pBP99, PhCMV*-1-SAMY-pA) or the EOFF-(PWW35, PSV40-ET1-pA; pBP100, PETR3-SAMY-pA) system set to control the Bacillus stearothermophilus-derived secreted α-amylase (SAMY) in response to tetracycline and erythromycin, respectively. SEAP and SAMY expression are scored 48 h after cultivation of the transfected populations in the presence (50 μM; 2 μg/mL) or absence of the inducer molecules (phloretin, tetracycline, erythromycin).

TtgK (TtgR-KRAB) = assay: PEACE-ON: SEAP expression of CHO-K1 co-transfected with pMG28 (PSV40-TtgK-pA) and pMG27 (PTtgRON-SEAP-pA); format: cell-based; conditions: phloretin 0-50 μM, 48 h
Procedure: (C) SEAP expression profiles of CHO-K1 transiently transfected with pMG28 (PSV40-TtgK-pA) and pMG27 (PTtgRON-SEAP-pA) and cultivated for 48 h in the presence of different phloretin concentrations (0-50 μM).
By fusing TtgR to the human Kruppel-associated box-protein (KRAB) (Moosmann P., Georgiev O., Thiesen H. J., Hagmann M., Schaffner W., […], Biol Chem 378(7):669-677) a synthetic mammalian transrepressor (TtgK) is created, which is able to bind and inhibit transcription from a promoter (PTtgRON) harboring eight OTtgR-elements located 3′ of a constitutive simian virus 40 promoter (PSV40), in a phloretin-responsive manner (FIGS. 10A and B). Co-transfection of the constitutive TtgK expression vector pMG28 (PSV40-TtgK-pA) and pMG27 (PTtgRON-SEAP-pA) encoding a TtgK-specific PTtgRON-driven SEAP expression unit, results in low-level, basal SEAP expression (2.3±0.26 U/L). […]

TtgA3 (TtgR-E2F4) = assay: PEACE: SEAP expression after transient co-transfection of pMG10 and pMG19 (PSV40-TtgA3-pA); format: cell-based, Pseudomonas putida DOT-T1E; conditions: 48 h
Description: Three different transactivators are designed, harboring either the VP16 (TtgA1; pMG11, TtgR-VP16) (Triezenberg S. J. et al., loc. cit.), the p65 (TtgA2; pMG18, TtgR-p65) (Urlinger S., et al., 2000, Gene 247(1-2):103-110) or the human E2F4 (TtgA3; pMG19, TtgR-E2F4) (Akagi K., Kanai M., Saya H., Kozu T., Berns A., 2001, Nucleic Acids Res 29(4):e23) transactivation domains. pMG11, pMG18 or pMG19 are co-transfected with pMG10 (PTtgR1-SEAP-pA) into CHO-K1, HEK-293 as well as primary human fibroblasts and keratinocytes, and SEAP expression is profiled after 48 h of cultivation in the presence or absence of 50 μM phloretin. […] All transactivators mediate similar basal expression levels when phloretin is […] in the medium, but due to their cell-type specificity and graded maximum transcription-initiation capacities, the three transactivators offer a selection of defined expression windows.

[2] = system: CHO-K1 cells transgenic for constitutive SEAP expression; assay: Control mice receiving CHO-K1 cells transgenic for constitutive SEAP expression, phloretin skin lotion; format: in vivo, female OF1 mice; conditions: constitutive SEAP implant; skin lotion with 42 mg phloretin (0 mg: 6.2±0.43 U/L)
Procedure: CHO-PEACE8 is microencapsulated in coherent alginate-PLL-alginate capsules and implanted subcutaneously into mice. The back of treated mice is partially shaved and vaseline-based skin lotions (200 μL) containing different amounts of phloretin (0-42 mg) are put on every day. […] Control mice receiving CHO-K1 cells transgenic for constitutive SEAP expression are insensitive to any treatment with phloretin-containing skin lotion (0 mg phloretin: 6.2±0.43 U/L; 42 mg phloretin: 6.02±0.58 U/L).
(§1) CHO-PEACE8 and CHO-SEAP18 (Fluri D. A., Kemmer C., Daoud-El Baba M., Fussenegger M., 2008, J Control Release 131(3):211-219) are encapsulated in alginate-poly-(L-lysine)-alginate beads (400 μm; 200 cells/capsule) using an Inotech Encapsulator Research IE-50R (Recipharm, Basel, Switzerland) according to the manufacturer's instructions and the following parameters: 0.2 mm nozzle, 20 mL syringe at a flow rate of 405 units, nozzle vibration frequency of 1024 Hz and 900 V for bead dispersion. […] Thereafter, the mice are sacrificed, blood samples collected and SEAP levels are quantified in the serum which is isolated using microtainer SST tube according to the manufacturer's instructions (Beckton Dickinson, Plymouth, UK). […]

[3] = system: microencapsulated CHO-PEACE8 implants; assay: Transdermal phloretin control of SEAP from microencapsulated CHO-PEACE8 implanted subcutaneously in mice; format: in vivo, female OF1 mice; conditions: vaseline-based skin lotion 200 μL, 0-42 mg phloretin, every day; 72 h after implantation
Procedure: (A) Microencapsulated CHO-PEACE8 are implanted subcutaneously into female OF1 mice (2×10^6 cells/mouse). 200 μL of a cream containing different amounts of phloretin (0, 5.25, 10.5, 21 and 42 mg) is applied to a shaved skin area near the implant site. SEAP serum levels are quantified 72 h post implantation.
CHO-PEACE8 is microencapsulated in coherent alginate-PLL-alginate capsules and implanted subcutaneously into mice. The back of treated mice is partially shaved and vaseline-based skin lotions (200 μL) containing different amounts of phloretin (0-42 mg) are put on every day. […]
as §1

T1 sequence (P04483 whole entry, added parts left off): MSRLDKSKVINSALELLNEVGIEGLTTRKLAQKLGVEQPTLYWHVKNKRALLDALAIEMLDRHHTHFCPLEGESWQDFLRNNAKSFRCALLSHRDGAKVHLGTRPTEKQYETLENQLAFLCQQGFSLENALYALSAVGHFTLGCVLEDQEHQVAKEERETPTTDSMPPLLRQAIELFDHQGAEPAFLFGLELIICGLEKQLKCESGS

For `O=C(CCc1ccc(O)cc1)c1c(O)cc(O)cc1O` [phloretin, 3-[4-hydroxyphenyl]-1-[2,4,6-trihydroxyphenyl]-1-propanone], the “Relative SAMY Production (%)” value [1] was 98.1 ± 2.8%, the “SEAP expression dose response (PEACE-ON)” value (TtgK (TtgR-KRAB)) was “dose-dependent induction of SEAP expression” and the “SEAP Production” value (TtgA3 (TtgR-E2F4); CHO-K1, phloretin 50 μM) was 0.26 ± 0.08 U/L. For the same molecule, the “SEAP Production” value (TtgA3 (TtgR-E2F4); HEK-293, phloretin 50 μM) was 0.2 ± 0.016 U/L, the “SEAP Production” value (TtgA3 (TtgR-E2F4); HaCaT, phloretin 50 μM) was 0.5 ± 0.05 U/L and the “SEAP level in control mice” value [2] was 6.02±0.58 U/L. The “SEAP serum levels in treated mice” value [3] was “phloretin-dependent dose-response characteristics”.
